# PubChem BioAssay (NCI)
#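 96-well plates; 48 h exposure; 5 concentrations. Endpoints by linear interpolation between flanking doses. Not reached: highest tested concentration assigned. GI50 marks 50% less growth. TGI is the concentration that stops growth completely.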
# How the values were obtained:
# Experiment in all cases: NCI-60 cell line screen, 48 h
# T-47D breast = test system: T-47D breast
# HCT-116 colon = test system: HCT-116 colon
# SK-OV-3 ovarian = test system: SK-OV-3 ovarian
# OVCAR-4 ovarian = test system: OVCAR-4 ovarian
# TK-10 renal = test system: TK-10 renal
# KM12 colon = test system: KM12 colon
# SNB-19 CNS = test system: SNB-19 CNS
# NCI-H226 lung = test system: NCI-H226 lung
# SK-MEL-5 melanoma = test system: SK-MEL-5 melanoma
# NCI-H460 lung = test system: NCI-H460 lung
# A498 renal = test system: A498 renal
# UO-31 renal = test system: UO-31 renal
# SR leukemia = test system: SR leukemia
# NCI-H522 lung = test system: NCI-H522 lung
# IGROV1 ovarian = test system: IGROV1 ovarian
# PC-3 prostate = test system: PC-3 prostate
# SF-539 CNS = test system: SF-539 CNS
# SF-295 CNS = test system: SF-295 CNS
# OVCAR-3 ovarian = test system: OVCAR-3 ovarian
# A549 NSCLC = test system: A549 NSCLC
# SNB-75 CNS = test system: SNB-75 CNS
# SK-MEL-28 melanoma = test system: SK-MEL-28 melanoma
# CCRF-CEM leukemia = test system: CCRF-CEM leukemia
# SN12C renal = test system: SN12C renal
# MDA-MB-435 = test system: MDA-MB-435
# HS 578T breast = test system: HS 578T breast
# MDA-MB-231 breast = test system: MDA-MB-231 breast
# HCC-2998 colon = test system: HCC-2998 colon
# LOX IMVI melanoma = test system: LOX IMVI melanoma
# HL-60(TB) leukemia = test system: HL-60(TB) leukemia
# HCT-15 colon = test system: HCT-15 colon
# RXF 393 renal = test system: RXF 393 renal
# CAKI-1 renal = test system: CAKI-1 renal
# MALME-3M melanoma = test system: MALME-3M melanoma
# MCF7 breast = test system: MCF7 breast
# U251 CNS = test system: U251 CNS
# SW-620 colon = test system: SW-620 colon
# UACC-62 melanoma = test system: UACC-62 melanoma
# OVCAR-8 ovarian = test system: OVCAR-8 ovarian
# K-562 leukemia = test system: K-562 leukemia
# OVCAR-5 ovarian = test system: OVCAR-5 ovarian
# COLO 205 colon = test system: COLO 205 colon
# M14 melanoma = test system: M14 melanoma
# BT-549 breast = test system: BT-549 breast
# DU-145 prostate = test system: DU-145 prostate
# HOP-62 NSCLC = test system: HOP-62 NSCLC
# EKVX NSCLC = test system: EKVX NSCLC
# SK-MEL-2 melanoma = test system: SK-MEL-2 melanoma
# HT29 colon = test system: HT29 colon
# NCI/ADR-RES ovarian = test system: NCI/ADR-RES ovarian
# SF-268 CNS = test system: SF-268 CNS
# ACHN renal = test system: ACHN renal
# 786-0 renal = test system: 786-0 renal
# HOP-92 NSCLC = test system: HOP-92 NSCLC
# MOLT-4 leukemia = test system: MOLT-4 leukemia
# UACC-257 melanoma = test system: UACC-257 melanoma
# RPMI-8226 leukemia = test system: RPMI-8226 leukemia
compound,measurement,setting,value
CCNC(=O)N1CCc2cc(OC)c(OCCc3ccc(OC)cc3)cc2C1c1ccc(OC)cc1C (stereo unspecified),GI50,T-47D breast,2960 nM
same,TGI,T-47D breast,> 100000 nM
same,GI50,HCT-116 colon,232 nM
same,TGI,HCT-116 colon,> 100000 nM
same,GI50,SK-OV-3 ovarian,5440 nM
same,TGI,SK-OV-3 ovarian,> 100000 nM
same,GI50,OVCAR-4 ovarian,3730 nM
same,TGI,OVCAR-4 ovarian,> 100000 nM
same,GI50,TK-10 renal,5950 nM
same,TGI,TK-10 renal,> 100000 nM
same,GI50,KM12 colon,1120 nM
same,TGI,KM12 colon,> 100000 nM
same,GI50,SNB-19 CNS,1160 nM
same,TGI,SNB-19 CNS,> 100000 nM
same,GI50,NCI-H226 lung,2720 nM
same,TGI,NCI-H226 lung,> 53800 nM
same,GI50,SK-MEL-5 melanoma,741 nM
same,TGI,SK-MEL-5 melanoma,3160 nM
same,GI50,NCI-H460 lung,288 nM
same,TGI,NCI-H460 lung,> 32900 nM
same,TGI,A498 renal,> 22200 nM
same,GI50,UO-31 renal,1450 nM
same,TGI,UO-31 renal,> 100000 nM
same,GI50,SR leukemia,151 nM
same,TGI,SR leukemia,2690 nM
same,GI50,NCI-H522 lung,698 nM
same,TGI,NCI-H522 lung,3340 nM
same,GI50,IGROV1 ovarian,755 nM
same,TGI,IGROV1 ovarian,> 100000 nM
same,GI50,PC-3 prostate,489 nM
same,TGI,PC-3 prostate,> 100000 nM
same,GI50,SF-539 CNS,572 nM
same,TGI,SF-539 CNS,5720 nM
same,GI50,SF-295 CNS,875 nM
same,TGI,SF-295 CNS,> 37500 nM
same,GI50,OVCAR-3 ovarian,1960 nM
same,TGI,OVCAR-3 ovarian,> 100000 nM
same,GI50,A549 NSCLC,1390 nM
same,TGI,A549 NSCLC,> 100000 nM
same,GI50,SNB-75 CNS,893 nM
same,TGI,SNB-75 CNS,> 27200 nM
same,GI50,SK-MEL-28 melanoma,1410 nM
same,TGI,SK-MEL-28 melanoma,> 100000 nM
same,GI50,CCRF-CEM leukemia,432 nM
same,TGI,CCRF-CEM leukemia,> 100000 nM
same,GI50,SN12C renal,1530 nM
same,TGI,SN12C renal,> 100000 nM
same,GI50,MDA-MB-435,770 nM
same,TGI,MDA-MB-435,7230 nM
same,GI50,HS 578T breast,1660 nM
same,TGI,HS 578T breast,> 31100 nM
same,GI50,MDA-MB-231 breast,1040 nM
same,TGI,MDA-MB-231 breast,> 100000 nM
same,GI50,HCC-2998 colon,1950 nM
same,TGI,HCC-2998 colon,> 100000 nM
same,GI50,LOX IMVI melanoma,300 nM
same,GI50,HL-60(TB) leukemia,583 nM
same,TGI,HL-60(TB) leukemia,5230 nM
same,GI50,HCT-15 colon,168 nM
same,TGI,HCT-15 colon,> 100000 nM
same,GI50,RXF 393 renal,1510 nM
same,TGI,RXF 393 renal,4190 nM
same,GI50,CAKI-1 renal,1150 nM
same,TGI,CAKI-1 renal,> 100000 nM
same,GI50,MALME-3M melanoma,12200 nM
same,TGI,MALME-3M melanoma,> 100000 nM
same,GI50,MCF7 breast,528 nM
same,TGI,MCF7 breast,> 100000 nM
same,GI50,U251 CNS,557 nM
same,TGI,U251 CNS,> 100000 nM
same,GI50,SW-620 colon,741 nM
same,TGI,SW-620 colon,> 100000 nM
same,GI50,UACC-62 melanoma,644 nM
same,TGI,UACC-62 melanoma,> 100000 nM
same,GI50,OVCAR-8 ovarian,821 nM
same,TGI,OVCAR-8 ovarian,> 100000 nM
same,GI50,K-562 leukemia,242 nM
same,TGI,K-562 leukemia,> 100000 nM
same,GI50,OVCAR-5 ovarian,2350 nM
same,TGI,OVCAR-5 ovarian,> 100000 nM
same,GI50,COLO 205 colon,1070 nM
same,TGI,COLO 205 colon,> 100000 nM
same,GI50,M14 melanoma,1240 nM
same,TGI,M14 melanoma,> 100000 nM
same,GI50,BT-549 breast,1360 nM
same,GI50,DU-145 prostate,1330 nM
same,TGI,DU-145 prostate,> 100000 nM
same,GI50,HOP-62 NSCLC,1590 nM
same,TGI,HOP-62 NSCLC,> 100000 nM
same,GI50,EKVX NSCLC,5640 nM
same,TGI,EKVX NSCLC,> 100000 nM
same,GI50,SK-MEL-2 melanoma,3800 nM
same,TGI,SK-MEL-2 melanoma,> 29700 nM
same,GI50,HT29 colon,694 nM
same,TGI,HT29 colon,9660 nM
same,GI50,NCI/ADR-RES ovarian,871 nM
same,TGI,NCI/ADR-RES ovarian,> 30000 nM
same,GI50,SF-268 CNS,1320 nM
same,TGI,SF-268 CNS,> 100000 nM
same,GI50,ACHN renal,755 nM
same,TGI,ACHN renal,> 100000 nM
same,GI50,786-0 renal,715 nM
same,TGI,786-0 renal,> 100000 nM
same,GI50,HOP-92 NSCLC,3910 nM
same,TGI,HOP-92 NSCLC,> 100000 nM
same,GI50,MOLT-4 leukemia,314 nM
same,TGI,MOLT-4 leukemia,> 100000 nM
same,GI50,UACC-257 melanoma,6660 nM
same,TGI,UACC-257 melanoma,> 100000 nM
same,GI50,RPMI-8226 leukemia,486 nM
same,TGI,RPMI-8226 leukemia,4890 nM
